The source made the active and inactive calls. The rule behind the calls is not given here.
Experiments:
[1] = molecular target: Glucagon-like peptide 1 receptor (Homo sapiens, UniProt P43220); assay: Agonist activity at human GLP1 receptor expressed in HEK293 cells assessed as induction of cAMP levels after 20 mins by time-resolved fluorescence analysis; type: functional, cell-based
Rattus norvegicus [2] = assay: Antidiabetic activity in Sprague-Dawley rat assessed as increase in insulin level at 25 nmol/kg, ip pretreated for 30 mins followed by glucose challenge and measured after 15 to 60 mins by ELISA method; type: functional
Mus musculus = assay: Antidiabetic activity in STZ-induced diabetic Kunming mouse assessed as hypoglycemic time duration for glycemia under 8.35 mmol/L at 25 nmol/kg, ip pretreated with STZ for 5 consecutive days and measured up to 48 hrs; type: functional
Rattus norvegicus [3] = assay: Antidiabetic activity in Sprague-Dawley rat assessed as decrease in glucose level at 25 nmol/kg, ip pretreated for 30 mins followed by glucose challenge and measured up to 180 mins by OGTT relative to control; type: functional, organism-based

Chain of Glucagon-like peptide 1 receptor (P43220 whole entry): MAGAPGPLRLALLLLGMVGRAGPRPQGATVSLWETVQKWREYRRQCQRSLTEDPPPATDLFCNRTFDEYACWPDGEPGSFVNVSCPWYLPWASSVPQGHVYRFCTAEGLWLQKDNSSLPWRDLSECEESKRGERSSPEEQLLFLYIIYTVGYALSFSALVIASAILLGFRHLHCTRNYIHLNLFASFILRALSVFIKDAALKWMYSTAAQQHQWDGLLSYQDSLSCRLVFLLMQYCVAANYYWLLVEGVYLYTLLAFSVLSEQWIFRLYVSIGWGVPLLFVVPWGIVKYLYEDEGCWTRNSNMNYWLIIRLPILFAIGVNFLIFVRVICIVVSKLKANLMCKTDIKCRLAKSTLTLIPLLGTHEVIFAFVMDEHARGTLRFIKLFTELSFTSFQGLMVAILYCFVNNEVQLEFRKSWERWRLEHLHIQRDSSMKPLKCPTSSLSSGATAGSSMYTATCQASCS

SMILES	EC50 [1]	Activity (Rattus norvegicus [2])	Time (Mus musculus)	Activity (Rattus norvegicus [3])
CC[C@H](C)[C@H](NC(=O)[C@H](Cc1ccc(O)cc1)NC(=O)[C@H](CC(C)C)NC(=O)[C@H](CCCNC(=N)N)NC(=O)[C@@H](NC(=O)[C@H](C)NC(=O)[C@H](CCC(=O)O)NC(=O)[C@H](CCC(=O)O)NC(=O)[C@H](CCC(=O)O)NC(=O)[C@H](CCSC)NC(=O)[C@H](CCC(N)=O)NC(=O)[C@H](CCCCN)NC(=O)[C@H](CO)NC(=O)[C@H](CC(C)C)NC(=O)[C@H](CC(=O)O)NC(=O)[C@H](CO)NC(=O)[C@@H](NC(=O)[C@H](Cc1ccccc1)NC(=O)[C@@H](NC(=O)CNC(=O)[C@H](CCC(=O)O)NC(=O)CNC(=O)[C@@H](N)Cc1cnc[nH]1)[C@@H](C)O)[C@@H](C)O)C(C)C)C(=O)N[C@@H](CCC(N)=O)C(=O)N[C@@H](Cc1c[nH]c2ccccc12)C(=O)N[C@@H](CC(C)C)C(=O)N[C@@H](CCCCN)C(=O)N[C@@H](CCC(=O)O)C(=O)NCC(=O)NCC(=O)N1CCC[C@H]1C(=O)N[C@@H](CO)C(=O)N[C@@H](CO)C(=O)NCC(=O)N[C@@H](CCCNC(=N)N)C(=O)N1CCC[C@H]1C(=O)N1CCC[C@H]1C(=O)N1CCC[C@H]1C(=O)N[C@@H](CO)C(=O)N[C@@H](CSC1CC(=O)N(CCCCCCCCCCCC(=O)N[C@@H](CCC(=O)O)C(=O)O)C1=O)C(N)=O (stereo not given in full)	0.0202 nM	–	–	–
CC[C@H](C)[C@H](NC(=O)[C@H](Cc1ccc(O)cc1)NC(=O)[C@H](CC(C)C)NC(=O)[C@H](CCCNC(=N)N)NC(=O)[C@@H](NC(=O)[C@H](C)NC(=O)[C@H](CCC(=O)O)NC(=O)[C@H](CCC(=O)O)NC(=O)[C@H](CCC(=O)O)NC(=O)[C@H](CCSC)NC(=O)[C@H](CCC(N)=O)NC(=O)[C@H](CSC1CC(=O)N(CCCCCCCCCCCC(=O)N[C@@H](CCC(=O)O)C(=O)O)C1=O)NC(=O)[C@H](CO)NC(=O)[C@H](CC(C)C)NC(=O)[C@H](CC(=O)O)NC(=O)[C@H](CO)NC(=O)[C@@H](NC(=O)[C@H](Cc1ccccc1)NC(=O)[C@@H](NC(=O)CNC(=O)[C@H](CCC(=O)O)NC(=O)CNC(=O)[C@@H](N)Cc1cnc[nH]1)[C@@H](C)O)[C@@H](C)O)C(C)C)C(=O)N[C@@H](CCC(N)=O)C(=O)N[C@@H](Cc1c[nH]c2ccccc12)C(=O)N[C@@H](CC(C)C)C(=O)N[C@@H](CCCCN)C(=O)N[C@@H](CCC(=O)O)C(=O)NCC(=O)NCC(=O)N1CCC[C@H]1C(=O)N[C@@H](CO)C(=O)N[C@@H](CO)C(=O)NCC(=O)N[C@@H](CCCNC(=N)N)C(=O)N1CCC[C@H]1C(=O)N1CCC[C@H]1C(=O)N1CCC[C@H]1C(=O)N[C@@H](CO)C(N)=O (stereo not given in full)	0.0182 nM	–	–	–
CCCCCCCCCCCCCCCC(=O)N[C@@H](CCC(=O)NCCCC[C@H](NC(=O)[C@H](C)NC(=O)[C@H](C)NC(=O)[C@H](CCC(N)=O)NC(=O)CNC(=O)[C@H](CCC(=O)O)NC(=O)[C@H](CC(C)C)NC(=O)[C@H](Cc1ccc(O)cc1)NC(=O)[C@H](CO)NC(=O)[C@H](CO)NC(=O)[C@@H](NC(=O)[C@H](CC(=O)O)NC(=O)[C@H](CO)NC(=O)[C@@H](NC(=O)[C@H](Cc1ccccc1)NC(=O)[C@@H](NC(=O)CNC(=O)[C@H](CCC(=O)O)NC(=O)[C@H](C)NC(=O)[C@@H](N)Cc1cnc[nH]1)[C@@H](C)O)[C@@H](C)O)C(C)C)C(=O)N[C@@H](CCC(=O)O)C(=O)N[C@@H](Cc1ccccc1)C(=O)N[C@H](C(=O)N[C@@H](C)C(=O)N[C@@H](Cc1c[nH]c2ccccc12)C(=O)N[C@@H](CC(C)C)C(=O)N[C@H](C(=O)N[C@@H](CCCNC(=N)N)C(=O)NCC(=O)N[C@@H](CCCNC(=N)N)C(=O)NCC(=O)O)C(C)C)[C@@H](C)CC)C(=O)O [LIRAGLUTIDE]	–	411 pmol/L	13.1 h	Active

From ChEMBL document CHEMBL4396956 (Bioorg Med Chem, 2019)
